The nature of this assay: Test for liquid permeation through dentinal tubules (Pashley's protocol, split chamber device). The following applies: component blended singly. Also noted: species or system human.

Method: A healthy human evulsion tooth was used to cut the tooth into sections in such a manner that dentin and dentinal tubules were exposed. The resulting sections were polished at a thickness of about 500 μm and were subjected to ultrasonic cleaning. […] The resulting solution was used as a test solution. Then, the sections whose portions other than the test surface had been masked were soaked in the test solution at 37° C. for 9 min per day. This soaking treatment was conducted for 5 days.
In addition, a test for liquid permeation through dentinal tubules was conducted. […] A dentin section was interposed between an inlet chamber and an outlet chamber of the above device. Then, the test solution was placed in the inlet chamber to treat the dentin surface. In addition, a Ringer's solution was injected using pressure in the inlet chamber before and after the treatment. By measuring the amount of flow through the outlet chamber, the liquid permeation through dentinal tubules was evaluated.
The effect of inhibiting liquid permeation through dentinal tubules of each test solution was determined as follows: first, a difference between the amount of flow of the Ringer's solution before and that after the treatment was determined; and a liquid permeation inhibition rate of the dentinal tubules was then calculated in percent units by using the following equation. […]

Consider `O.O.O=P([O-])([O-])O.[Ca+2]` [calcium monohydrogen phosphate dihydrate], for which the “ability to occlude dentinal tubules of a tooth” value is listed as “had an ability to occlude dentinal tubules of a tooth”.

Source of the values: US9468593B2, “Oral composition” (KABUSHIKI KAISHA SANGI, priority 2012, dated 2016).
